Patent publication EP1948196B1, “USE OF TETRAORGANOSILICON COMPOUNDS” (Salama, Zoser B., priority 2005, dated 2007)
In brackets after ≈: the same amount, converted by molar mass. Read-outs that look alike come from different tables or passages of the source. Numbered stars: 1 amine (or outer) side, 2 acyl side, 3 side chain; on linkers, the order of the positions; unused ones are H or OH. Bridge positions count the residues as written; N and C are the ends. Peptide text beside a SMILES is read from it. I, II: the chains in the order shown. X2 = c1ccc([Si](O[*:1])(O[*:2])c2ccccc2)cc1; X1 = C[Si](C)(O[*:1])O[*:2]

Key:
[1] = system: Plattenepihtelkarzinomen oder Plasmozytomen; experiment: Effect against metastasis in rats; type: in vivo; settings: in Ratten
[2] = system: T47D (Brustkrebs); experiment: MTT test, triplicate, two-fold dilutions; type: cell-based; settings: Homo sapiens, T47D, read-out: IC50 T47D
Experimental: (§1) Die Silan wurden in Ethanol aufgelöst und in Zellkulturmedien in Konzentrationen von bis zu 500 µg/ml resuspendiert. Es wurden MTT Tests in dreifacher Ausführung durchgeführt, für welche doppelte Lösungen (7 Schritte) und colo205 (Kofon-Karzinom), BxPC3 (pankreatisches Adenokarzinom) sowie T47D (Brustkrebs) benutzt wurden.

[3] = system: colo205 (Kofon-Karzinom); experiment: MTT test, triplicate, two-fold dilutions; type: cell-based; settings: Homo sapiens
Experimental: as §1

[4] = system: BxPC3 (pankreatisches Adenokarzinom); experiment: MTT test, triplicate, two-fold dilutions; type: cell-based; settings: Homo sapiens
Experimental: as §1

[5] = system: Plasmozytome
[6] = system: Rhino-Viren; experiment: Antiviral effect; settings: in particular as vesicles holding antisense constructs
[7] = system: Osteosarkome; experiment: Effect on osteosarcomas
[8] = system: Lymphome; experiment: Effect on lymphomas
[9] = system: Angiosarkome; experiment: Effect on angiosarcomas
[10] = system: Seminome; experiment: Effect on seminomas
[11] = system: Hepatitis B-Viren; experiment: Antiviral effect; settings: in particular as vesicles holding antisense constructs
[12] = system: Angiosarkome; experiment: Effect on angiosarcomas; remark: listed apart in the source
[13] = COLO 205, up to 500 µg/ml, read-out: IC50 Colo205
[14] = BXPC-3, up to 500 µg/ml, read-out: IC50 BxPC3
[15] = COLO 205, read-out: IC50 Colo205

CCCCCCCC(=O)O[Si](CC)(CC)OC(=O)CCCCCCC [Di(octanoyloxy)diethylsilan]
Wirkung gegen die Metastasierung von Plattenepihtelkarzinomen oder Plasmozytomen [1]: zeigen eine Wirkung

CCCCCCCCCCC(=O)O[Si](CC)(CC)OC(=O)CCCCCCCCCC [Si 4, Di (undecanoyloxy) diethylslan]
IC50 ([2]; up to 500 µg/ml): 180 µg/mL (≈ 394 µM)
IC50 [3, 13]: 200 µg/mL (≈ 438 µM)
IC50 [4, 14]: 100 µg/mL (≈ 219 µM)
Wirkung gegen die Metastasierung von Plattenepihtelkarzinomen oder Plasmozytomen [1]: zeigen eine Wirkung

N[C@@H](Cc1ccccc1)C(=O)N[C@@H](Cc1ccccc1)C(=O)N[C@@H](Cc1ccccc1)C(=O)N[C@@H](Cc1ccccc1)C(=O)N[C@@H](Cc1ccccc1)C(=O)N[C@@H](Cc1ccccc1)C(=O)N[C@@H](Cc1ccccc1)C(=O)N[C@@H](Cc1ccccc1)C(=O)O[Si](OC(=O)[C@H](Cc1ccccc1)NC(=O)[C@H](Cc1ccccc1)NC(=O)[C@H](Cc1ccccc1)NC(=O)[C@H](Cc1ccccc1)NC(=O)[C@H](Cc1ccccc1)NC(=O)[C@H](Cc1ccccc1)NC(=O)[C@H](Cc1ccccc1)NC(=O)[C@@H](N)Cc1ccccc1)(c1ccccc1)c1ccccc1 [Diphenyl bis(octaphenylalanyl)silylester] (I: H-FFFFFFFF / II: H-FFFFFFFF; linker I:C-II:C via X2)
Wirkung auf Plasmozytome [5]: zeigen eine Wirkung

CCCCCCCCCCCCCCCCC(=O)O[Si](OC(=O)CCCCCCCCCCCCCCCC)(c1ccccc1)c1ccccc1 [Di(heptadecanoyloxy)diphenylsilan]
Wirkung gegen Rhino-Viren [6]: zeigen eine Wirkung
Wirkung auf Osteosarkome [7]: zeigen eine Wirkung

Diethyl bis(biphenylalanyl)silylester
Wirkung auf Lymphome [8]: zeigen eine Wirkung

CCCCCCCCCCC(=O)O[Si](C)(C)OC(=O)CCCCCCCCCC [Si 2, Di (undecanoyloxy) dimethylsilan]
IC50 ([2]; up to 500 µg/ml): 125 µg/mL (≈ 292 µM)
IC50 [3, 13]: 125 µg/mL (≈ 292 µM)
IC50 [4, 14]: 80 µg/mL (≈ 187 µM)
Wirkung gegen die Metastasierung von Plattenepihtelkarzinomen oder Plasmozytomen [1]: zeigen eine Wirkung

CCCCCCCCCCCCC(=O)O[Si](C)(C)OC(=O)CCCCCCCCCCCC [Si 3, Di (tridecanoyloxy) dimethylsilan]
IC50 [2]: 80 µg/mL (≈ 165 µM)
IC50 [3, 15]: 230 µg/mL (≈ 474 µM)
IC50 ([4]; BXPC-3, read-out: IC50 BxPC3): 80 µg/mL (≈ 165 µM)
Wirkung gegen die Metastasierung von Plattenepihtelkarzinomen oder Plasmozytomen [1]: zeigen eine Wirkung

CCCCCCCCC(=O)O[Si](OC(=O)CCCCCCCC)(c1ccccc1)c1ccccc1 [Di(nonanoyloxy)diphenylsilan]
Wirkung gegen Rhino-Viren [6]: zeigen eine Wirkung
Wirkung auf Osteosarkome [7]: zeigen eine Wirkung

CCCCCCCCCCCCCCC(=O)O[Si](C)(C)OC(=O)CCCCCCCCCCCCCC [Di(pentadecanoyloxy)dimethylsilan]
Wirkung gegen die Metastasierung von Plattenepihtelkarzinomen oder Plasmozytomen [1]: zeigen eine Wirkung

CCCCCCCCCCCCC(=O)O[Si](CCC)(CCC)OC(=O)CCCCCCCCCCCC [Di(tridecanoyloxy)dipropylsilan]
Wirkung gegen Angiosarkome [9]: zeigen eine Wirkung
Wirkung auf Seminome [10]: zeigen eine Wirkung
Wirkung gegen Hepatitis B-Viren [11]: zeigen eine Wirkung

CCCCCCCCCC(=O)O[Si](CC)(CC)OC(=O)CCCCCCCCC [Si 12, Di (decanoyloxy) diethylsilan]
IC50 [2]: 600 µg/mL (≈ 1400 µM)
IC50 [3, 15]: 300 µg/mL (≈ 700 µM)
IC50 ([4]; BXPC-3, read-out: IC50 BxPC3): 140 µg/mL (≈ 327 µM)
Wirkung gegen die Metastasierung von Plattenepihtelkarzinomen oder Plasmozytomen [1]: zeigen eine Wirkung

CCCCCCCCCCCC(=O)O[Si](CCC)(CCC)OC(=O)CCCCCCCCCCC [Di(dodecanoyloxy)dipropylsilan]
Wirkung gegen Angiosarkome [9]: zeigen eine Wirkung
Wirkung auf Seminome [10]: zeigen eine Wirkung
Wirkung gegen Hepatitis B-Viren [11]: zeigen eine Wirkung

C[Si](C)(OC(=O)[C@H](Cc1ccccc1)NC(=O)[C@H](Cc1ccccc1)NC(=O)[C@H](Cc1ccccc1)NC(=O)[C@H](Cc1ccccc1)NC(=O)[C@H](Cc1ccccc1)NC(=O)[C@H](Cc1ccccc1)NC(=O)[C@H](Cc1ccccc1)NC(=O)[C@@H](N)Cc1ccccc1)OC(=O)[C@H](Cc1ccccc1)NC(=O)[C@H](Cc1ccccc1)NC(=O)[C@H](Cc1ccccc1)NC(=O)[C@H](Cc1ccccc1)NC(=O)[C@H](Cc1ccccc1)NC(=O)[C@H](Cc1ccccc1)NC(=O)[C@H](Cc1ccccc1)NC(=O)[C@@H](N)Cc1ccccc1 [Dimethyl bis(octaphenylalanyl)silylester] (I: H-FFFFFFFF / II: H-FFFFFFFF; linker I:C-II:C via X1)
Wirkung auf Lymphome [8]: zeigen eine Wirkung

CC/C=C\C/C=C\C/C=C\CCCCCCCC(=O)O[Si](OC(=O)CCCCCCC/C=C\C/C=C\C/C=C\CC)(c1ccccc1)c1ccccc1 [Di(linolenoylooxy)diphenylsilan]
Wirkung gegen Rhino-Viren [6]: zeigen eine Wirkung
Wirkung auf Osteosarkome [7]: zeigen eine Wirkung

CC(C)[C@H](N)C(=O)N[C@H](C(=O)N[C@H](C(=O)N[C@H](C(=O)N[C@H](C(=O)N[C@H](C(=O)N[C@H](C(=O)N[C@H](C(=O)O[Si](OC(=O)[C@@H](NC(=O)[C@@H](NC(=O)[C@@H](NC(=O)[C@@H](NC(=O)[C@@H](NC(=O)[C@@H](NC(=O)[C@@H](NC(=O)[C@@H](N)C(C)C)C(C)C)C(C)C)C(C)C)C(C)C)C(C)C)C(C)C)C(C)C)(c1ccccc1)c1ccccc1)C(C)C)C(C)C)C(C)C)C(C)C)C(C)C)C(C)C)C(C)C [Diphenyl bis(octavalyl)silylester] (I: H-VVVVVVVV / II: H-VVVVVVVV; linker I:C-II:C via X2)
Wirkung gegen Angiosarkome [12]: zeigen eine Wirkung

CCCCCCCCC(=O)O[Si](CC)(CC)OC(=O)CCCCCCCC [Di(nonanoyloxy)diethyisilan]
Wirkung gegen die Metastasierung von Plattenepihtelkarzinomen oder Plasmozytomen [1]: zeigen eine Wirkung

CCCCCCCCCCCCC(=O)O[Si](OC(=O)CCCCCCCCCCCC)(c1ccccc1)c1ccccc1 [Si 7, Di (tridecanoyloxy) diphenylslan]
Wirkung gegen Rhino-Viren [6]: zeigen eine Wirkung
IC50 ([2]; up to 500 µg/ml): 80 µg/mL (≈ 131 µM)
IC50 [3, 13]: 125 µg/mL (≈ 205 µM)
IC50 [4, 14]: 60 µg/mL (≈ 98.5 µM)
Wirkung auf Osteosarkome [7]: zeigen eine Wirkung

CC(C)[C@H](N)C(=O)N[C@H](C(=O)N[C@H](C(=O)N[C@H](C(=O)O[Si](OC(=O)[C@@H](NC(=O)[C@@H](NC(=O)[C@@H](NC(=O)[C@@H](N)C(C)C)C(C)C)C(C)C)C(C)C)(c1ccccc1)c1ccccc1)C(C)C)C(C)C)C(C)C [Diphenyl bis(tetravalyl)silylester]
Wirkung gegen Angiosarkome [12]: zeigen eine Wirkung

CCCCCCCCCCC(=O)O[Si](OC(=O)CCCCCCCCCC)(c1ccccc1)c1ccccc1 [Di(undecanoyloxy)diphenylsilan]
Wirkung gegen Rhino-Viren [6]: zeigen eine Wirkung
Wirkung auf Osteosarkome [7]: zeigen eine Wirkung

CC(C)[C@H](N)C(=O)N[C@H](C(=O)N[C@H](C(=O)N[C@H](C(=O)N[C@H](C(=O)N[C@H](C(=O)N[C@H](C(=O)O[Si](OC(=O)[C@@H](NC(=O)[C@@H](NC(=O)[C@@H](NC(=O)[C@@H](NC(=O)[C@@H](NC(=O)[C@@H](NC(=O)[C@@H](N)C(C)C)C(C)C)C(C)C)C(C)C)C(C)C)C(C)C)C(C)C)(c1ccccc1)c1ccccc1)C(C)C)C(C)C)C(C)C)C(C)C)C(C)C)C(C)C [Diphenyl bis(heptavalyl)silylester] (I: H-VVVVVVV / II: H-VVVVVVV; linker I:C-II:C via X2)
Wirkung gegen Angiosarkome [12]: zeigen eine Wirkung

CCCCCCCCCCCCCCC(=O)O[Si](CCC)(CCC)OC(=O)CCCCCCCCCCCCCC [Di(pentadecanoyloxy)dipropylsilan]
Wirkung gegen Angiosarkome [9]: zeigen eine Wirkung
Wirkung auf Seminome [10]: zeigen eine Wirkung
Wirkung gegen Hepatitis B-Viren [11]: zeigen eine Wirkung

CCCCCCCCCCCCCC(=O)O[Si](CCC)(CCC)OC(=O)CCCCCCCCCCCCC [Di(tetradecanoyloxy)dipropylsilan]
Wirkung gegen Angiosarkome [9]: zeigen eine Wirkung
Wirkung auf Seminome [10]: zeigen eine Wirkung
Wirkung gegen Hepatitis B-Viren [11]: zeigen eine Wirkung

CCCCC/C=C\C/C=C\CCCCCCCC(=O)O[Si](OC(=O)CCCCCCC/C=C\C/C=C\CCCCC)(c1ccccc1)c1ccccc1 [Di (linoylooxy)diphenylsilan]
Wirkung gegen Rhino-Viren [6]: zeigen eine Wirkung
Wirkung auf Osteosarkome [7]: zeigen eine Wirkung

CC(C)[C@H](N)C(=O)N[C@H](C(=O)N[C@H](C(=O)N[C@H](C(=O)N[C@H](C(=O)O[Si](OC(=O)[C@@H](NC(=O)[C@@H](NC(=O)[C@@H](NC(=O)[C@@H](NC(=O)[C@@H](N)C(C)C)C(C)C)C(C)C)C(C)C)C(C)C)(c1ccccc1)c1ccccc1)C(C)C)C(C)C)C(C)C)C(C)C [Diphenyl bis(pentavalyl)silylester]
Wirkung gegen Angiosarkome [12]: zeigen eine Wirkung

CCCCCCCC/C=C\CCCCCCCC(=O)O[Si](OC(=O)CCCCCCC/C=C\CCCCCCCC)(c1ccccc1)c1ccccc1
Wirkung gegen Rhino-Viren [6]: zeigen eine Wirkung
Wirkung auf Osteosarkome [7]: zeigen eine Wirkung

CCCCCCCCCCCCCCCCC(=O)O[Si](C)(C)OC(=O)CCCCCCCCCCCCCCCC [Di(heptadecanoyloxy)dimethylslan]
Wirkung gegen die Metastasierung von Plattenepihtelkarzinomen oder Plasmozytomen [1]: zeigen eine Wirkung
